# Source: PubChem BioAssay (NCI)
#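 These data come from cells grown in 96-well plates and exposed to compound for 48 hours at five concentrations. Here, GI50 denotes the concentration required for 50% inhibition of growth. At the TGI there is no net growth.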
# Columns and labels:
# Experiment in all cases: DTP human tumour cell line panel, 48 h
# SK-OV-3 ovarian = system: SK-OV-3 ovarian
# TK-10 renal = system: TK-10 renal
# A549 NSCLC = system: A549 NSCLC
# CAKI-1 renal = system: CAKI-1 renal
# 786-0 renal = system: 786-0 renal
# OVCAR-3 ovarian = system: OVCAR-3 ovarian
# M14 melanoma = system: M14 melanoma
# MALME-3M melanoma = system: MALME-3M melanoma
# PC-3 prostate = system: PC-3 prostate
# SN12C renal = system: SN12C renal
SMILES,GI50 (SK-OV-3 ovarian),TGI (SK-OV-3 ovarian),GI50 (TK-10 renal),TGI (TK-10 renal),GI50 (A549 NSCLC),TGI (A549 NSCLC),GI50 (CAKI-1 renal),TGI (CAKI-1 renal),GI50 (786-0 renal),TGI (786-0 renal),GI50 (OVCAR-3 ovarian),TGI (OVCAR-3 ovarian),GI50 (M14 melanoma),TGI (M14 melanoma),GI50 (MALME-3M melanoma),TGI (MALME-3M melanoma),GI50 (PC-3 prostate),TGI (PC-3 prostate),GI50 (SN12C renal),TGI (SN12C renal)
CC1OC(OC2C(O)CC(OC3C(O)CC(OC4CCC5(C)C(CCC6C5CC(O)C5(C)C(C7=CC(=O)OC7)CCC65O)C4)OC3C)OC2C)CC(O)C1O (centres undefined),0.0513 µM,0.171 µM,0.0295 µM,0.087 µM,0.0187 µM,0.0356 µM,0.0416 µM,0.204 µM,0.041 µM,0.162 µM,0.033 µM,0.113 µM,0.176 µM,0.349 µM,0.0373 µM,0.16 µM,0.0543 µM,0.538 µM,0.0391 µM,0.248 µM
CCCCCCNC(=O)Oc1ccc(/C(=C(\C)c2ccc(Cl)cc2)c2ccc(OCCN3CCCCC3)cc2)cc1,5.42 µM,13.6 µM,5.79 µM,12.2 µM,4.73 µM,10.5 µM,4.03 µM,8.25 µM,1.93 µM,6.41 µM,4.39 µM,9.42 µM,0.785 µM,3.65 µM,3.36 µM,7.7 µM,2.23 µM,14.1 µM,4.22 µM,8.68 µM
Cn1cc(C2=C(c3cccc(OC[C@@H](O)CO)c3)C(=O)NC2=O)c2ccccc21,> 18.3 µM,> 25 µM,> 25 µM,> 25 µM,> 25 µM,> 25 µM,15.3 µM,> 25 µM,14 µM,> 25 µM,11.2 µM,> 25 µM,> 25 µM,> 25 µM,> 25 µM,> 25 µM,> 25 µM,> 25 µM,> 23 µM,> 25 µM
COc1cc2c(cc1OCCCCN1CCN(C(=S)SCCC(C#N)(c3ccccc3)c3ccccc3)CC1)N=C[C@@H]1CCCN1C2=O,2.96 µM,9.81 µM,1.26 µM,3.04 µM,–,–,0.597 µM,2.7 µM,1.28 µM,2.8 µM,1.2 µM,2.93 µM,–,–,1.36 µM,3.04 µM,0.697 µM,2.41 µM,1.16 µM,4.54 µM
Cc1cccc2c3c(sc12)C(c1ccc(Cl)cc1)C(C#N)=C(N)O3 (centres undefined),3.59 µM,27.2 µM,5.92 µM,21.7 µM,0.486 µM,9.66 µM,0.295 µM,14.5 µM,0.643 µM,13.3 µM,0.384 µM,3.16 µM,0.326 µM,12.8 µM,0.653 µM,20 µM,0.395 µM,12.8 µM,0.544 µM,11.2 µM
C[C@]12CC[C@@H]3c4cc(OC(F)F)c(OS(N)(=O)=O)cc4CC[C@H]3[C@@H]1CC[C@@H]2O,0.683 µM,76.9 µM,17 µM,> 77.2 µM,1.75 µM,> 88.2 µM,0.485 µM,44.1 µM,0.621 µM,29.1 µM,0.39 µM,11.1 µM,0.343 µM,14.6 µM,0.485 µM,21.6 µM,0.537 µM,47.8 µM,0.608 µM,19.1 µM
C(=N/N(Cc1ccccc1)Cc1ccccc1)/c1ccccc1,> 100 µM,> 100 µM,> 100 µM,> 100 µM,> 100 µM,> 100 µM,> 100 µM,> 100 µM,> 100 µM,> 100 µM,> 100 µM,> 100 µM,90.1 µM,> 100 µM,41.1 µM,> 100 µM,> 100 µM,> 100 µM,> 100 µM,> 100 µM
CCC1(O)C(=O)OCc2c1cc1n(c2=O)Cc2cc3c(NC(=O)CN)cccc3nc2-1 (centres undefined),0.377 µM,31.3 µM,38.7 µM,> 97.6 µM,1.2 µM,> 67.7 µM,0.205 µM,8.37 µM,0.194 µM,2.48 µM,3.3 µM,22.3 µM,0.532 µM,8.73 µM,6.94 µM,41.1 µM,2.72 µM,> 100 µM,0.102 µM,10.1 µM
COc1ccc(N(CC(=O)NCCC[Te]c2ccccc2)C(=O)CNC(=O)OC(C)(C)C)cc1,2.34 µM,4.83 µM,3.93 µM,10.8 µM,0.521 µM,2.17 µM,2.1 µM,5.6 µM,3.75 µM,13 µM,3 µM,7.88 µM,3.53 µM,10.6 µM,15.7 µM,32.8 µM,1.72 µM,10.1 µM,2.06 µM,4.97 µM
CCN(CC)CCCCCCNc1cc(OC)cc2cccnc12,17.7 µM,33 µM,16.1 µM,30.8 µM,4.35 µM,15.4 µM,12.4 µM,26.6 µM,2.11 µM,4.32 µM,1.74 µM,3.4 µM,1.93 µM,3.74 µM,2.03 µM,3.93 µM,2.06 µM,4.1 µM,2.29 µM,5 µM
O=[N+]([O-])c1ccc(N2CCOCC2)c2c1no[n+]2[O-],1.43 µM,4.68 µM,3.85 µM,16.7 µM,1.9 µM,6.28 µM,0.443 µM,1.89 µM,2.12 µM,6 µM,1.4 µM,3.15 µM,1.11 µM,3.81 µM,1.52 µM,4.28 µM,1.25 µM,5.53 µM,1.2 µM,2.85 µM
O=C(Nc1cccc(-n2cc(-c3ccncc3)c(-c3cc(O)cc(Cl)c3)n2)c1)c1cc(C(F)(F)F)cc(C(F)(F)F)c1,10.8 µM,> 100 µM,–,–,2.62 µM,> 100 µM,3.67 µM,> 100 µM,3.12 µM,21.1 µM,3.28 µM,25.7 µM,3.01 µM,> 100 µM,3.69 µM,94.4 µM,2.28 µM,22.5 µM,4.77 µM,> 100 µM
